Where “and” joins values, the source holds several entries; their conditions need not be identical. Equal values may be shown once.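 Dose response: 5 concentrations. Exposure: 48 h. Format: 96-well plates. Endpoint: linear interpolation; highest concentration if not reached. GI50 marks 50% less growth. TGI: total growth inhibition.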
Legend:
Assay in all cases: NCI-60 cell line screen, 48 h
[1] = tested on: IGROV1 ovarian
[2] = tested on: MDA-MB-231 breast
[3] = tested on: OVCAR-8 ovarian
[4] = tested on: NCI-H522 lung
[5] = tested on: UO-31 renal
[6] = tested on: HL-60(TB) leukemia
[7] = tested on: HCT-116 colon
[8] = tested on: PC-3 prostate
[9] = tested on: SNB-19 CNS
[10] = tested on: UACC-62 melanoma

CC1CC2CCCC(O)=C2C(=O)O1 (stereo unspecified)
TGI [1]: > 100 µM | TGI [2]: > 100 µM | TGI [3]: > 100 µM | TGI [4]: > 100 µM | TGI [5]: > 100 µM | TGI [6]: > 100 µM | TGI [7]: > 100 µM | TGI [8]: > 100 µM | TGI [9]: > 64.8 µM | TGI [10]: > 100 µM

CCCC(=O)Nc1cn(COC)c(C(=O)N2C[C@@H]3C[C@]34C2=CC(=O)c2[nH]cc(C)c24)n1
GI50 [1]: 1270 nM | TGI [1]: 29.5 µM and 10.8 µM | GI50 [2]: 19900 nM | TGI [2]: 27 µM and 51.1 µM | TGI [3]: 12.8 µM and 14 µM | TGI [4]: 13.5 µM and 4 µM | GI50 [5]: 16900 nM | TGI [5]: 30.3 µM and 57.3 µM | TGI [6]: 4.9 µM | TGI [7]: 50 µM and 82.4 µM | GI50 [8]: 5650 nM | TGI [8]: 24.1 µM and 19 µM | GI50 [9]: 10700 nM | TGI [9]: 50 µM and 30.9 µM | GI50 [10]: 12400 nM | TGI [10]: 16.8 µM and 24.9 µM

CNCCOC(=O)/C=C1\CC[C@H]2[C@@H]([C@@H](O)C(=O)[C@@H]3[C@]2(C)CC[C@H](O)[C@]3(C)C(=O)OC)[C@H]1C
GI50 [1]: 438 nM | TGI [1]: 2.23 µM | GI50 [2]: 1770 nM | TGI [2]: 5.91 µM | GI50 [3]: 329 nM | TGI [3]: 1.11 µM | GI50 [4]: 249 nM | TGI [4]: 0.813 µM | GI50 [5]: 297 nM | TGI [5]: 1.1 µM | GI50 [6]: 244 nM | TGI [6]: 0.687 µM | GI50 [7]: 294 nM | TGI [7]: 1.03 µM | GI50 [8]: 369 nM | TGI [8]: 2.34 µM | GI50 [9]: 668 nM | TGI [9]: 1.99 µM | GI50 [10]: 1410 nM | TGI [10]: 2.93 µM

NNC(=O)CNc1cccc(Br)c1
TGI [1]: > 100 µM | TGI [2]: > 100 µM | TGI [3]: > 100 µM | TGI [4]: > 100 µM | TGI [5]: > 100 µM | TGI [6]: > 100 µM | TGI [7]: > 100 µM | TGI [8]: > 100 µM | TGI [9]: > 100 µM | TGI [10]: > 100 µM

N=c1c2c(-c3ccccc3)c(-c3ccccc3)n(Cc3ccccc3)c2ncn1C1CCC(O)CC1 (stereo unspecified)
GI50 [1]: 90.2 nM | TGI [1]: 4.49 µM | GI50 [2]: 1290 nM | TGI [2]: 4.65 µM | GI50 [3]: 72 nM | TGI [3]: 19 µM | GI50 [4]: 576 nM | TGI [4]: 5.61 µM | GI50 [5]: 258 nM | TGI [5]: 1.65 µM | GI50 [6]: 1190 nM | TGI [6]: 3.66 µM | GI50 [7]: 44.6 nM | TGI [7]: 1.75 µM | GI50 [8]: 466 nM | TGI [8]: 5.08 µM | GI50 [9]: 1210 nM | TGI [9]: 17.9 µM | GI50 [10]: 534 nM | TGI [10]: 7.06 µM

Cc1nc(N)sc1N=Nc1ccccc1Br
TGI [1]: 64.4 µM | TGI [2]: 67 µM | TGI [3]: > 84.8 µM | TGI [4]: 30.3 µM | TGI [5]: 60.5 µM | TGI [6]: > 75.9 µM | TGI [7]: 55.1 µM | TGI [8]: 63 µM | TGI [9]: > 69.7 µM | TGI [10]: 45.4 µM

S=c1[nH]c(=S)c2cc3ccccc3nc2[nH]1
GI50 [1]: 23000 nM | TGI [1]: > 100 µM | GI50 [2]: 51000 nM | TGI [2]: > 100 µM | GI50 [3]: > 100000 nM | TGI [3]: > 100 µM | GI50 [4]: 20500 nM | TGI [4]: 51.7 µM | GI50 [5]: > 100000 nM | TGI [5]: > 100 µM | GI50 [6]: 38000 nM | TGI [6]: > 100 µM | GI50 [7]: 69800 nM | TGI [7]: > 100 µM | GI50 [8]: 4740 nM | TGI [8]: > 100 µM | GI50 [9]: 35500 nM | TGI [9]: > 100 µM | GI50 [10]: 69500 nM | TGI [10]: > 100 µM

CCn1c(O)c(/C=N/NC(=O)C(C)c2ccc(CC(C)C)cc2)sc1=S (stereo unspecified)
GI50 [1]: 419 nM | TGI [1]: > 36.9 µM | GI50 [2]: 515 nM | TGI [2]: 7.59 µM | GI50 [3]: 493 nM | TGI [3]: > 100 µM | GI50 [4]: 277 nM | TGI [4]: 5.58 µM | GI50 [5]: 483 nM | TGI [5]: 16.8 µM | GI50 [6]: 312 nM | TGI [6]: 1.52 µM | GI50 [7]: 397 nM | TGI [7]: > 36.9 µM | GI50 [8]: 415 nM | TGI [8]: > 41.4 µM | GI50 [9]: 433 nM | TGI [9]: > 41.8 µM | GI50 [10]: 435 nM | TGI [10]: 15 µM

COc1cc(Cl)cc(-c2nn(-c3cccc(NC(=O)c4ccc(N5CCOCC5)c(C(F)(F)F)c4)c3)cc2-c2ccncc2)c1
GI50 [1]: > 100000 nM | TGI [1]: > 100 µM | GI50 [2]: 2830 nM | TGI [2]: 32.4 µM | GI50 [3]: 6330 nM | TGI [3]: > 100 µM | GI50 [4]: 4720 nM | TGI [4]: > 100 µM | GI50 [5]: 4500 nM | TGI [5]: > 100 µM | GI50 [6]: 4190 nM | TGI [6]: 33.2 µM | GI50 [7]: 9640 nM | TGI [7]: > 100 µM | GI50 [8]: 3300 nM | TGI [8]: > 100 µM | GI50 [9]: > 100000 nM | TGI [9]: > 100 µM | GI50 [10]: 9100 nM | TGI [10]: > 100 µM

CC(NCCC(c1ccccc1)c1ccccc1)c1ccccc1 (stereo unspecified)
GI50 [1]: 2890 nM | TGI [1]: 13.5 µM | GI50 [2]: 2170 nM | TGI [2]: 5.74 µM | GI50 [3]: 1700 nM | TGI [3]: 3.37 µM | GI50 [4]: 1810 nM | TGI [4]: 3.48 µM | GI50 [5]: 2190 nM | TGI [5]: 12.1 µM | GI50 [6]: 2130 nM | TGI [6]: 4.19 µM | GI50 [7]: 1660 nM | TGI [7]: 3.08 µM | GI50 [8]: 2100 nM | TGI [8]: 6.96 µM | GI50 [9]: 1560 nM | TGI [9]: 3.44 µM | GI50 [10]: 1620 nM | TGI [10]: 3.57 µM

COc1cc(N(CCC#N)CCC#N)ccc1/C(N=Nc1ccc(Cl)cc1)=N/NC(=O)c1cc(Br)ccc1O
GI50 [1]: 54.5 µg/mL | TGI [1]: > 150 µg/mL | GI50 [2]: 38.8 µg/mL | TGI [2]: > 150 µg/mL | GI50 [3]: 39 µg/mL | TGI [3]: 108 µg/mL | GI50 [4]: 56.4 µg/mL | TGI [4]: > 150 µg/mL | GI50 [5]: 86.6 µg/mL | TGI [5]: > 150 µg/mL | GI50 [6]: 62.1 µg/mL | TGI [6]: > 150 µg/mL | GI50 [7]: 53.2 µg/mL | TGI [7]: > 150 µg/mL | GI50 [8]: 64.1 µg/mL | TGI [8]: > 150 µg/mL | GI50 [9]: > 150 µg/mL | TGI [9]: > 150 µg/mL | GI50 [10]: 112 µg/mL | TGI [10]: > 150 µg/mL

CC(=O)ON1CCCC(P(=O)(OCCSC(=O)C(C)(C)C)OCCSC(=O)C(C)(C)C)C1=O (stereo unspecified)
GI50 [1]: 808 nM | TGI [1]: 6.27 µM | GI50 [2]: 1340 nM | TGI [2]: 87.8 µM | GI50 [3]: 691 nM | TGI [3]: > 100 µM | GI50 [4]: 659 nM | TGI [4]: 20.9 µM | GI50 [5]: 413 nM | TGI [5]: 11.3 µM | GI50 [6]: 1680 nM | TGI [6]: 11.3 µM | GI50 [7]: 613 nM | TGI [7]: 12.7 µM | GI50 [8]: 3510 nM | TGI [8]: > 100 µM | GI50 [9]: 1760 nM | TGI [9]: 21.9 µM | GI50 [10]: 1570 nM | TGI [10]: 8.58 µM

CN(C)C1CCN(C(=O)c2ccc(NC(=O)Nc3ccc(-c4nc(N5CCOCC5)c5cccn5n4)cc3)cc2)CC1
GI50 [1]: 30.2 nM | TGI [1]: 0.211 µM | GI50 [2]: 49.1 nM | TGI [2]: 11.1 µM | GI50 [3]: 116 nM | TGI [3]: 15.5 µM | GI50 [4]: 37.7 nM | TGI [4]: 19.1 µM | GI50 [5]: 1150 nM | TGI [5]: 10.1 µM | GI50 [6]: 105 nM | TGI [6]: 1.76 µM | GI50 [7]: 70.5 nM | TGI [7]: 20 µM | GI50 [8]: 39.7 nM | TGI [8]: 2.1 µM | GI50 [9]: 40.3 nM | TGI [9]: 6.22 µM | GI50 [10]: 44.4 nM | TGI [10]: 0.287 µM

NS(=O)(=O)c1ccc(N=Nc2c(O)c(C(=O)O)cc3ccccc23)cc1
TGI [1]: > 100 µM | TGI [2]: > 100 µM | TGI [3]: > 100 µM | TGI [4]: > 100 µM | TGI [5]: > 100 µM | TGI [6]: > 100 µM | TGI [7]: > 100 µM | TGI [8]: > 100 µM | TGI [9]: > 90.3 µM | TGI [10]: > 100 µM

Reference: PubChem BioAssay (NCI)
